The source of these data is patent publication US11466032B2, “Cytotoxic agents” (FEMTOGENIX LIMITED, priority 2017, dated 2022).

The test system of one experiment is MCF-7. Description: MTT cytotoxicity assay, 72 hour incubation. Type of experiment: cell-based. Particulars: Homo sapiens, MCF7, 3 runs. As for the experimental part: (§1) The cytotoxicity of compounds 26, 34, 50,58 and 68 were evaluated in a variety of cell lines using the standard MTT assay for a 72 hour incubation period (Table 1).
(§2) Tumor cell lines were maintained in RPMI1640 medium supplemented with 10% heat-inactivated fetal bovine serum, 2 mM L-glutamine and 1 mM sodium pyruvate. 1800 cells per well were seeded in a volume of 180 μl in a 96-well flat bottom polystyrene plate. The cells were allowed to adhere overnight at 37° C. in a CO2 incubator. Ligands were initially formulated in DMSO, and stocks stored at −80° C. They were then further formulated at lox concentration in RPMI1640 medium. 20 ul of diluted samples were added into each treatment well. On each plate, blank wells with no cells, and untreated wells containing cells, were included. Plates were then cultured at 37° C. in a CO2 incubator for 72 hrs. Cytotoxicity was evaluated using a tetrazolium salt-based assay, the MT assay. After 72 hours, the supernatant was removed from each well and 200 μl of a sterile filtered 500 μg/ml MT solution in water added to each well. The plates were then incubated at 37° C. in a CO2 incubator for 4 hrs. The supernatant was then removed and the formazan crystals formed solubilized by adding 150 μl of DMSO to each well. The plate was then read on a plate reader at 540 nm, and percentage cell survival calculated as follows: ((mean absorbance treated wells at concentration x—mean absorbance blank wells)÷(mean absorbance untreated wells at concentration x—mean absorbance blank wells))×100. Data were plotted as concentration in nM vs. % cell survival in Microsoft Excel, and IC50 values (concentration where cell survival is reduced by a half) were determined from the graph.

Another experiment relates to SK-BR-3. Description: MTT cytotoxicity assay, 72 hour incubation. Type of experiment: cell-based. Particulars: Homo sapiens, 3 runs. The method, then:
as §1, §2
On the technique in general: Formazan colour is commonly taken as a measure of viable cells.

The test system of a further experiment is SW 620. Description: MTT cytotoxicity assay, 72 hour incubation. In kind it is cell-based. The conditions noted are these: Homo sapiens, SW-620, 3 runs. The method, then:
as §1, §2

The test system of the next experiment is SW48. Description: MTT cytotoxicity assay, 72 hour incubation. The conditions noted are these: Homo sapiens, SW48, 3 runs. In kind it is cell-based. The method, then: as §1, §2
A further experiment relates to ZR 75-1. Description: MTT cytotoxicity assay, 72 hour incubation. Type of experiment: cell-based. Particulars: Homo sapiens, 3 runs. The method, then: as §1, §2
Experiment [1] deals with HexA and MS1 DNA fragments. Description: DNA footprinting. Type of experiment: binding. Particulars: X is any base, Y is G or C, W is A or T; overnight incubation. The method, then: The sequence selectivity of 26 and 34 was investigated using a modification of the previously established DNA footprinting assay^25. Following an overnight incubation of the ligand-DNA complexes, the mixture was mixed with strand separation buffer containing 10 mM EDTA, 10 mM NaOH, 0.1% bromophenol blue, 80% formamide and incubated at 100° C. for 3 min. The mixture was then immediately cooled on ice and run on an 8% denaturing gel.
Footprinting reactions were performed as previously described^[5] using the DNA fragments HexA and HexB, which together contain all 64 symmetrical hexanucleotide sequences^[6], and MS1 that contains all possible […] tetranucleotide sequences^[7]. The DNA fragments were obtained by cutting the parent plasmids with HindIII and SacI (for HexA and MS1) or EcoRI and PstI (for HexB), and were labelled at the 3′-end of the HindIII or EcoRI sites with [α-^32P]dATP using reverse transcriptase or exo-Klenow fragment. After gel purification, the radiolabelled DNA was dissolved in 10 mM Tris-HCl pH 7.5 containing 0.1 mM EDTA, at a concentration of about 10 c.p.s per μL as determined on a hand held Geiger counter. 1.5 μL of radiolabelled DNA was mixed with 1.5 μL ligand that had been freshly diluted in 10 mM Tris-HCl pH 7.5, containing 10 mM NaCl. […]

Experiment [2] has as its system fluorescently labelled DNA duplexes. Description: FRET DNA melting. Type of experiment: binding. The method, then: FRET DNA Melting FRET DNA melting studies were undertaken on 26 and 34 using a number of fluorescently labelled sequences. The sequences (FIG. 10) were designed to provide additional evidence that 26 and 34 can form inter- and intrastrand cross-links at the site 5′-XYWWYWYX-3′.
The short duplexes used in this FRET study are relatively unstable in the duplex form with a melting temperature below 30° C. so that, in the absence of ligand, a large part of the melting occurs below the starting temperature of the experiment.
Oligonucleotides were obtained from ATDbio (Southampton, UK) in lyophilised form. They were labelled with a fluorophore molecule (F=fluorescein) at the 5′-end and a quencher molecule (Q=dabcyl) at the 3′-end of the complementary strand. Each oligonucleotide was dissolved in distilled H2O to form stock solutions of 100 μM. Working solutions of 5 μM were prepared by diluting the stock solution with distilled H2O.
The following buffers were used: 250 mM phosphate buffer pH 7.4 (consisting of sodium dihydrogen phosphate and sodium phosphate diluted in distilled H2O) and 5 M sodium chloride buffer. All buffers and distilled H2O were filtered through a […] filter prior to use.
The reaction mixture was comprised of 4 μL of 250 mM phosphate buffer (final concentration of 50 mM), 4 μL flourophor and 4 μL quencher molecule of the appropriate oligonucleotide for a final concentration of 0.2 μM, 4 μL 5 M sodium chloride (final concentration of 1 M NaCl), and 4 μL of distilled H2O. This mixture was heated in an Eppendorf tube at 90° C. for 1 min and slowly cooled down to room temperature. This process was carried out to anneal the single strands to double-stranded DNA. Following this, 4 μL of the ligand was added in the desired concentration and the mixture incubated overnight either at room temperature or 4° C. […] This mixture was analysed without prior annealing.
Fluorescence melting profiles were measured using a Roche LightCycler using a total reaction volume of 20 μL. […] Annealing steps and melting steps were all recorded and changes in fluorescence were measured at 520 nm. […]

Take `CNS(=O)(=O)c1ccc(C2=CCN3C(=O)c4cc(OC)c(OCc5cccc(COc6cc7c(cc6OC)C(=O)N6CC=C(c8ccc(S(=O)(=O)NC)cc8)C[C@H]6C=N7)n5)cc4N=C[C@@H]3C2)cc1` [Compound 34, 4,4′-((6aS,6a′S)-((Pyridine-2,6-diylbis(methylene))bis(oxy))bis(2-methoxy-12-oxo-6a,7,10,12-tetrahydrobenzo[e]pyrido[1,2-α][1,4]diazepine-3,8-diyl))bis(N-methylbenzenesulfonamide)]: the IC50 (commonly the point on the concentration scale where inhibition reaches its midpoint) was found to be 0.057 nM in the experiment on MCF-7; 0.041 nM in the experiment with SK-BR-3; 0.325 nM with SW 620; 0.0077 nM with SW48; 0.159 nM in the experiment with ZR 75-1. The “general code of the footprints (preferred binding sites)” value in experiment [1] is reported as “XYWWYWYX”. Besides, the “Tm of duplex with ligand” value in experiment [2] (5′-AAAAAAGAGAACAAAAAA-3′ (Seq 23), interstrand cross-link) was around 71 °C; in experiment [2] (AAAAAAGAGAGAAAAAA-3′ (Seq 20), intrastrand cross-link), 66 °C. In experiment [2] (5′-AAAAAAGATCAAAAAA-3′ (Seq 12), traditional PBD binding site), the stabilisation of duplex entry is given as “limited stabilisation”.
